Results on seven molecules are retold here after patent US20110124690A1, “COMPOSITIONS AND METHODS FOR TREATING CANCER OR A NEUROTROPHIC DISORDER” (priority 2007, published 2011).

Molecules are shown by their SMILES. Where two headings read alike, the source gives them in different places.

Series [1] has as its system CCRF-CEM/VBL (vinblastine-resistant) cells. As to the kind of experiment: XTT microculture cytotoxicity assay, vinblastine-resistant CCRF-CEM/VBL cells. In kind it is cell-based, human. The conditions noted are these: for IC50: Homo sapiens, CCRF-CEM. For orientation: Tetrazolium assays rely on reduction of a dye to a coloured formazan, in cell work by metabolically active cells.
Experimental: (§2) CCRF-CEM human T-cell acute lymphoblastic leukemia cells and the corresponding vinblastine-resistant cells (CCRF-CEM/VBL100) were cultured at an initial density of 5×10^4 cells per milliliter. The cultured cells were then maintained in a 5% CO2-humidified atmosphere at 37° C. in RPMI medium 1640 (GIBCO/BRL) containing penicillin (100 units/mL), streptomycin (100 μg/mL, GIBCO/BRL), and 10% heat-inactivated fetal bovine serum. The cytotoxicity of each Panaxytriol Compound was measured using the 2,3-bis(2-methoxy-4-nitro-5-sulfophenyl)-5-[(phenylamino)carbonyl]-2H-tetrazolium hydroxide (XTT) microculture method as described in Scudiero et al., Cancer Res., 48:4827 (1988).

In series [2] the test system is CCRF-CEM human T-cell acute lymphoblastic leukemia cells. Nature of the series: XTT microculture cytotoxicity assay, CCRF-CEM cells. The series is classed as cell-based.
Experimental: as §2
A short description of series [3]: Body weight of treated nude mice bearing MX-1 xenograft. The series is classed as in vivo. The conditions noted are these: highest dosage levels (100 mg/kg). How it is done: (§1) Nude mice having human mammary carcinoma xenograft MX-1 were treated with panaxytriol or Compound (A) at various dosages through the slow i.v. infusion protocol by Chou et al. (Chou, T. C., et al, Proc. Natl. Acad. Sci. U.S.A. 95: 15798 (1998)).

The subject of series [4] is human mammary carcinoma xenograft MX-1. Nature of the series: Therapeutic effect in nude mice bearing MX-1 xenograft. The series is classed as in vivo. Conditions: slow i.v. infusion; for Tumor growth at elevated dosage levels: elevated dosages. On the procedure: as §1
In the next series the test system is CCRF-CEM/Taxol cells. As to the kind of experiment: XTT microculture cytotoxicity assay, Taxol-resistant CCRF-CEM/Taxol cells. In kind it is cell-based, human. Conditions: Table 3A.
[5] abbreviates: 72 h, Table 3, XTT assay, 72-hour inhibition, vinblastine-resistant cells.
[6] abbreviates: 72 h, Table 3, XTT assay, 72-hour inhibition, read-out: IC50 (μM) CCRF-CEM.

Experimental for CCRF-CEM/Taxol cells: as §2

A word on the IC50: it is the concentration needed to halve the response being measured. Turning to `CC[C@]1(O)C[C@@H]2CN(CCc3c([nH]c4ccccc34)[C@@](C(=O)OC)(c3cc4c(cc3OC)N(C)[C@H]3[C@@](O)(C(=O)OC)[C@H](OC(C)=O)[C@]5(CC)C=CCN6CC[C@]43[C@@H]65)C2)C1` [Vinblastine, reference compound], the values for the IC50 in series [1] (setting [5]) and in series [2] (setting [6]) were 0.8 µM and 0.002 µM, respectively.

Consider `C=C[C@@H](O)C#CC#CC[C@@H](O)[C@H](O)CCCCCCC` [panaxytriol], for which the “Fold resistance (IC50 CCRF-CEM/VBL vs CCRF-CEM), in parentheses” value in series [1] (Table 3) is given as 1.20 x. In series [3], the Body weight result was “no body weight decrease”. In series [4] (30 mg/kg, FIG. 1), the “Reduction in tumor mass” value is “no significant reduction in tumor mass” and the Tumor growth entry is recorded as “some suppression of tumor growth”. For the same molecule, the “Tumor growth at elevated dosage levels” value in series [4] is on record as “improved inhibitory effects”.

`C=CC(=O)C#CC#CC[C@@H](O)[C@H](O)CCCCCCC` [Compound B]: in series [1] (Table 3), the “Fold resistance (IC50 CCRF-CEM/VBL vs CCRF-CEM), in parentheses” value is recorded as 1.40 x.

For the molecule `C=C[C@H](O)C#CC#CC[C@H]1OC(C)(C)O[C@@H]1CCCCCCC` [Compound (D)], the “Fold resistance, CCRF-CEM/Taxol vs parent CCRF-CEM (fold increase in IC50)” value in the series with CCRF-CEM/Taxol cells is “[2.17-fold”. Besides, the “Fold resistance, CCRF-CEM/VBL vs parent CCRF-CEM (fold increase in IC50)” value in series [1] (Table 3A) was “[1.98-fold”.

On to `C=C[C@@H](O)C#CC#CC[C@H]1OC(C)(C)O[C@@H]1CCCCCCC` [Compound A], for which the IC50 came out at 17.2 µM with CCRF-CEM/Taxol cells (Homo sapiens, CCRF-CEM, compound stored in DMSO at below approximately −20° C. for 4 years and 4 months); 2.41 ± 0.05 µM in series [1] (setting [5]); 6.82 µM in series [1] (Table 3A, compound stored in DMSO at below approximately −20° C. for 4 years and 4 months); 1.98 ± 0.2 µM in series [2] (setting [6]); 6.15 µM in series [2] (Table 3A, compound stored in DMSO at below approximately −20° C. for 4 years and 4 months, read-out: IC50 (μM) CCRF-CEM). Also, the “Fold resistance, CCRF-CEM/VBL vs parent CCRF-CEM (fold increase in IC50)” value in series [1] (Table 3A) is “[1.4-fold”. Moreover, in series [4], the “Tumor growth at elevated dosage levels” value was “enhanced tumor-growth suppression”. The “Reduction in tumor mass” value in series [4] (including elevated dosages) is listed as “did not lead to a reduction in the tumor mass”. Also, the Tumor growth result in series [4] (levels as low as 10 mg/kg, FIG. 2) was “inhibiting tumor growth”.

Regarding `C=CC(=O)C#CC#CC[C@H]1OC(C)(C)O[C@@H]1CCCCCCC` [Compound C], the values for the IC50 in series [1] (setting [5]) and in series [2] (setting [6]) were 3.84 ± 0.08 µM and 3.23 ± 0.78 µM, respectively.

Consider `C=C[C@H](C#CC#CC[C@H]1OC(C)(C)O[C@@H]1CCCCCCC)OC(=O)/C=C/c1ccccc1` [Compound (E)], for which, in series [2] (Table 3B, read-out: IC50 (in μM) for human leukemic lymphoblastic leukemia cells CCRF-CEM), the IC50 was found to be 6.51 µM.
